Results reported in patent US5639787A, “Therapeutic method for the treatment of cancer” (priority 1995, dated 1997).
Like-named read-outs stand apart in the source and are kept apart here.

Experiments:
tumor cell lines = conditions: cited from earlier work
[1] = test system: patient's tumor cells (metastatic colon carcinoma); experiment: cells; type: cell-based; conditions: Homo sapiens, Colon carcinoma cell, read-out: toxic to percent of the patient's tumor cells
Experimental: (§1) 3 Mr. […] Cancer was discovered during exploratory surgery. Multiple metastases were found on the omentum, transverse and sigmoid colon, and the peritoneum. Biopsy samples from these metastases were obtained during surgery and most of the tumor mass was not removed. A cell culture line was established from the tissue biopsies, and the patient tumor cells were tested to determine the sensitivity of the tumor cells to ascorbic acid. […] A target level of plasma concentration of ascorbic acid was selected at three times the level found to be toxic to the patient's tumor cells. Intravenous ascorbate was begun and the infusion quantity and rate required to achieve and maintain the targeted plasma ascorbic acid concentration of 90 mg/dl was determined. Twenty hour infusions of ascorbate were given three times per week. After four months of therapy, a surgical ileostomy was performed due to chronic diarrhea.

[2] = test system: metastatic colon carcinoma; experiment: A person, intravenous ascorbate, metastases observed during surgery; type: in vivo, human; conditions: after four months of therapy
Experimental: as §1

[3] = test system: PC-3 human prostate tumor cells; experiment: cells; type: cell-based; conditions: PC-3, 120 h
Experimental: (§2) 5 a person was a with metastatic prostate cancer. A baseline blood sample was drawn from the patient and the serum was separated. An intravenous infusion of 105 grams of ascorbate was performed over 5 hours. At the and of the 5 hours another blood sample was taken and again the serum was separated. The pre-infusion serum sample was assayed and found to contain an ascorbic acid concentration of 3.4 mg/dl and the post-infusion serum samples were assayed and found to contain an ascorbic acid concentration of 165 mg/dl. The cytotoxic effectiveness of both serum samples was tested against a line of human prostate tumor cells called "PC-3"from American Type Culture Collection. The PC-3 cells were plated, 3,000 cells per well in plastic 96 well tissue culture plates 24 hours before the blood was taken from the patient above. 100% and 50% (diluted with complete culture medium, DMEM) serum solutions from both samples were added to 16 wells each of the PC-3 cells which had been plated earlier. After a five day incubation, the number of surviving tumor cells in the wells containing the 100% and 50% solutions of the post-infusion serum sample was compared to the number of surviving tumor cells in the wells containing the 100% and 50% solutions of the pre-infusion serum sample and the percent survival was calculated as follows: […]

clinical [4] = conditions: human, in vivo, iv
Experimental: as §2

[5] = cited from earlier work
clinical [6] = conditions: human, in vivo
Source text: It is known that ascorbic acid and salts thereof have shown a cytotoxic effect when administered in vitro to tumor cell lines. […] The cytotoxic effect of ascorbic acid is understood to relate to the increased production of intracellular hydrogen peroxide, which is more toxic to tumor cells due to the lower levels of catalase typically present in tumor cells as compared to normal cells. Although some cancers may respond to lower levels, the concentration level of ascorbic acid required for in vitro cytotoxic effectiveness are normally in the range of 5-40 mg/dl with concentrations of 30-40 mg/dl being typical. […] Moreover, since ascorbic acid is readily cleared from the body, the tumor cytotoxic effect, if any, achieved by conventionally administered doses of ascorbic acid would be transitory at best.
The method of the present invention comprises the treatment of cancer by administering sufficient amounts of ascorbic acid to raise the concentration of ascorbic acid in the patient's plasma above a level that is cytotoxic to the cancer tumor cells. The treatment is based on the fact that tumor cells contain between 10 and 100 fold less of the enzyme catalase than normal cells. Catalase converts toxic hydrogen peroxide to non-toxic oxygen and water. This biochemical difference between normal and tumor cells provides a window of opportunity for selective toxicity. It has been known for some time that ascorbate is capable of inducing the intracellular production of hydrogen peroxide. The basis of the present invention is the discovery, through experimentation, that concentrations of ascorbate capable of inducing toxic reactions in tumor cells were achievable in vivo through intravenous infusion of large amounts of ascorbic acid in solution. […] For this reason, it is desirable to exceed the levels required for in vitro cytotoxicity in tumor cells by a wide margin. It is also advantageous to maintain the cytotoxic level of ascorbic acid in the patient's plasma for as long a period of time as is reasonably possible. To achieve such results in patients, the treatment has required intravenous administration of as much as 115 grams of ascorbic acid infused over several hours to achieve an apparently effective level of ascorbic acid. […] Continuous administration of a solution of ascorbic acid maintains the plasma levels despite the bodies ability to clear the ascorbate from the patient's system. Continuation of the treatment over multiple infusions is believed to be desirable. […] The plasma levels of ascorbic acid in patients are routinely and repeatedly monitored throughout the treatment and the amount of ascorbic acid administered is adjusted according to the individual patient's tolerance and the target level of ascorbic acid. Target levels of ascorbic acid are set according to the type of cancer afflicting the patient using in vitro studies of cytotoxicity in similar cell lines. More accurate target levels can be achieved by in vitro experimentation of malignant cells taken from the patient if such are available. A further development of the treatment of the present invention involves the direct testing of the cytotoxic effectiveness of the patient's serum. Serum is drawn during the infusion and either the patient malignant cells, if available, or similar cell lines are exposed to the patient's serum with the effects observed. This direct testing provides information that is used to adjust the amount of ascorbic acid administered to ensure that effective plasma levels have been achieved.
Since, as stated above, there is not a direct translation of in vitro to in vivo results, the level of ascorbic acid within the patient's plasma must be raised to exceed the levels required for in vitro cytotoxicity in tumor cells and maintained at that level for a significant period of time. The patient undergoes an intravenous infusion of ascorbic acid in a medically acceptable aqueous solution such as Ringer's lactate. As an example, Mr. […]

[7] = test system: metastatic ovarian cancer; experiment: A person, intravenous ascorbate, cancer antigen CA-125 level; type: in vivo, human; conditions: throughout intravenous ascorbate therapy, seven months
Experimental: 4 a person is a person with metastatic ovarian cancer. After six months of standard chemotherapy, a second exploratory surgery was performed, at which time metastases throughout the abdominal cavity were found. The patient was started on intravenous ascorbate infusions at the quantity and rate of flow required to maintain a plasma concentration of 80 mg/dl.

[8] = test system: metastatic fibrous histiocytoma; experiment: A person, intravenous ascorbate, chest x-ray; type: in vivo, human
Source text: Two masses were in the left lung and one mass was in the right lung. All masses measured approximately 2 cm. in diameter.

cancer = conditions: high doses of ascorbic acid; two published trials; cited from earlier work
[9] = humans; cited from earlier work
[10] = safety and tolerance of ascorbic acid administration; type: in vivo, human
Source text: G.; O'Fallon, J. R.; et al. Failure of High Dose Vitamin C (ascorbic acid) to Benefit Patients With Advanced Cancer: A Control Trial. N Engl. J. Med., 1979; 301:687-690 and Mortel, C. G.; Fleming, T. R.; Creagan, E. T.; , et al. High Dose of Vitamin C Versus Placebo In The Treatment of Patients With Advanced Cancer Who Have Had No Prior Chemotherapy. N Engl. J. Med., 1985; 312:137-141. Heretofore the highest dosage understood to be safely administered to a human was approximately 10-15 grams. […] The positive results are believed to have been achieved by means of increased stromal resistance to the invasiveness of the malignancies studied, although the lack of monitoring of the level of ascorbic acid present in the plasma prevents an accurate assessment.
Therefore, the in vitro results are not readily duplicated in vivo and the concentrations of ascorbic acid that are effectively toxic in vitro are not as effective, nor as easy to achieve, in test subjects.
The method of the present invention comprises the treatment of cancer by administering sufficient amounts of ascorbic acid to raise the concentration of ascorbic acid in the patient's plasma above a level that is cytotoxic to the cancer tumor cells. The treatment is based on the fact that tumor cells contain between 10 and 100 fold less of the enzyme catalase than normal cells. Catalase converts toxic hydrogen peroxide to non-toxic oxygen and water. This biochemical difference between normal and tumor cells provides a window of opportunity for selective toxicity. It has been known for some time that ascorbate is capable of inducing the intracellular production of hydrogen peroxide. […] The plasma levels of ascorbic acid in patients are routinely and repeatedly monitored throughout the treatment and the amount of ascorbic acid administered is adjusted according to the individual patient's tolerance and the target level of ascorbic acid. […]

[11] = test system: metastatic carcinoma of the head of the pancreas; experiment: A person, intravenous ascorbate, tumor on C-T scan; type: in vivo, human; conditions: six months after diagnosis
Experimental: Since, as stated above, there is not a direct translation of in vitro to in vivo results, the level of ascorbic acid within the patient's plasma must be raised to exceed the levels required for in vitro cytotoxicity in tumor cells and maintained at that level for a significant period of time. The patient undergoes an intravenous infusion of ascorbic acid in a medically acceptable aqueous solution such as Ringer's lactate. As an example, whose case is described below was administered 115 grams of ascorbic acid in 1000 cc Ringer's lactate, infused over 8 hours. The infusions are continued until resolution of the patient's tumors have been evidenced. Normal diagnosis and classification of the patient's cancer can be used in conjunction with experimental results to predict the target levels of ascorbic acid for an effective treatment. More accurate target levels can be achieved by experimentation on cultured malignant cells taken from the patient if such are available. […] The plasma levels of ascorbic acid in patients are routinely and repeatedly monitored throughout the treatment and the amount of ascorbic acid administered is adjusted according to the individuals tolerance and the target level of ascorbic acid. […]

[12] = test system: intracellular adhesion molecule-1 (ICAM-1); conditions: cited from earlier work

O=C1O[C@H]([C@@H](O)CO)C(O)=C1O [ascorbic acid]
effect of exposure to plasma on cytotoxic effect (tumor cell lines; exposure to plasma): diminished, to varying degrees
concentration level of ascorbic acid required for in vitro cytotoxic effectiveness (tumor cell lines; normally in the range): 5 to 40 mg/dL
concentration level of ascorbic acid required for in vitro cytotoxic effectiveness, typical (tumor cell lines; typical concentrations): 30 to 40 mg/dL
cytotoxicity at 300 µg/mL [1]: 100%
multiple metastases, size and consistency [2]: decreased significantly in size and have a flaccid consistency
viability at 1650 µg/mL ([3]; read-out: percent tumor cell survival, post-infusion serum (165 mg/dl ascorbic acid), 50% serum, five days): 15%
viability at 1650 µg/mL ([3]; read-out: percent tumor cell survival, post-infusion serum (165 mg/dl ascorbic acid), 100% serum, five days): 19%
viability at 34 µg/mL ([3]; read-out: percent tumor cell survival, preinfusion serum (3.4 mg/dl ascorbic acid), 50% serum, five days, reference): 100%
viability at 34 µg/mL ([3]; read-out: percent tumor cell survival, preinfusion serum (3.4 mg/dl ascorbic acid), 100% serum, five days, reference): 100%
ascorbic acid concentration in serum (clinical [4]): 3.4 mg/dL
concentration at 5 h (clinical [4]): 1650 µg/mL
highest dosage understood to be safely administered to a human ([5]; human, before the invention): 10-15 grams
tumor necrosis and hemorrhage ([5]; rare cases of extreme tumor sensitivity to ascorbic acid, fatal): rare instances of wide-spread tumor necrosis and hemorrhage
concentration at 1 h (clinical [6]; iv): 1580 µg/mL
concentration at 5 h (clinical [6]; iv): 1850 µg/mL
plasma concentration maintained (clinical [6]; iv): 80 mg/dL
plasma level of ascorbate achieved (clinical [6]; iv): exceeding 150 mg/dl
plasma levels of ascorbate achieved (clinical [6]; iv): 110 mg/dL
targeted plasma ascorbic acid concentration achieved and maintained (clinical [6]; iv): 90 mg/dL
levels of ascorbic acid between infusions (clinical [6]; po): found to avoid abnormally low levels of ascorbic acid between infusions
level of cancer antigen CA-125 [7]: returned to normal and remained within normal limits
right lung mass, chest x-ray ([8]; after seven months of therapy): disappeared
diameter of regressed left lung mass ([8]; after seven months, initially approximately 2 cm in diameter): about 1 cm
left lung mass which had regressed ([8]; after twelve months of therapy): completely resolved
size of the remaining left lung metastasis ([8]; after twelve months of therapy): no change
left lung mass, chest x-ray ([8]; one of the left lung masses, after seven months of therapy): decreased in size (to about 1 cm) with decreased radio-opacity
benefit to patients with advanced cancer (cancer): failure of high doses of ascorbic acid to have the desired effect in the treatment of cancer
normal plasma levels of ascorbic acid [9]: 0.39 to 1.13 mg/dL
detrimental side effects ([10]; A person, 39 8 hour infusions, 57.5 to 115 grams per infusion, 13 weeks): without reported detrimental side effects
depletion of minerals and other substances ([10]; ascorbic acid infusion process): depletion of certain minerals and other substances
detrimental side effects ([10]; intravenous infusion of large amounts (as much as 115 grams over several hours)): without reported detrimental side effects
tumor seen on C-T scan [11]: no detectable tumor

hyaluronic acid
binding by ICAM-1 [12]: preferentially bound
